Earlier results as cited in patent US20070154432A1, “Compositions and methods for hair growth” (priority 2005, published 2007).

How the values were obtained:
5α-alpha reductase = conditions: individually shown / studies have suggested
[1] = 200 individual; published in the Federal Register

| Compound | inhibition of 5α-alpha reductase (in words) (5α-alpha reductase) | toxicity, irritation and allergenicity by Schwartz patch test [1] |
| --- | --- | --- |
| CCCCC/C=C\C/C=C\CCCCCCCC(=O)O [linoleic acid, Linoleic Acid] | inhibit |  |
| CC/C=C\C/C=C\C/C=C\CCCCCCCC(=O)O [ALA, Alpha Linolenic Acid] | inhibit |  |
| [Zn] [zinc] | inhibits |  |
| CCCCC/C=C\C/C=C\C/C=C\CCCCC(=O)O [GLA, Gamma Linolenic Acid] | inhibit |  |
| NC(=O)NC1NC(=O)NC1=O (centres unmarked) [Allantoin, allantoin] |  | nontoxic, nonirritating and non-allergenic |
